How the values were obtained:
[1] = molecular target: T1, CD63 (Mus musculus, UniProt P41731); assay: EXP target detection by co-immunoprecipitation, silver staining and Western blot; assay type: binding; settings: Flag-tagged peptide on anti-flag beads, C2C12 lysate; band about 45 kD and 25 kD
T1 construct: endogenous in cells; host or cells: C2C12 cells (lysate)
T1 sequence (P41731 1-238): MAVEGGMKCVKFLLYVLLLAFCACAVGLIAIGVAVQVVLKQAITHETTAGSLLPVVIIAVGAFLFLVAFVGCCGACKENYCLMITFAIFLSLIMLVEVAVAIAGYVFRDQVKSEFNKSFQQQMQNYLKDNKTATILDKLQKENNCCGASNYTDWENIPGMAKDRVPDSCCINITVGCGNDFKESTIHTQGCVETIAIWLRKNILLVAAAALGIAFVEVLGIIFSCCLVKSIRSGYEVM
Experimental: (§1) (A) Silver staining and Western blot were used to detect the interest proteins band obtained by co-immunoprecipitation. Flag-tagged CP05 or EXP was incubated with anti-flag coated beads, and followed by co-incubation with cell lysates after removing the free peptides which were unconjugated with beads. The specific enriched proteins in the cell protein lysate were fished by using the polypeptide. Then the size distribution of the fishing strip was detected by silver staining, and the expression of different Tetraspanin family proteins in the fishing strip was detected by Western blot. […] (B)Immunoprecipitation was used to catch the target of EXP. The results are the same as above. […]

[2] = molecular target: T2, CD81 (Mus musculus, UniProt P35762); assay: as above; assay type: binding; settings: Flag-tagged peptide on anti-flag beads, C2C12 lysate; band about 45 kD and 25 kD
T2 construct: endogenous in cells; host or cells: C2C12 cells (lysate)
T2 sequence (P35762 1-236): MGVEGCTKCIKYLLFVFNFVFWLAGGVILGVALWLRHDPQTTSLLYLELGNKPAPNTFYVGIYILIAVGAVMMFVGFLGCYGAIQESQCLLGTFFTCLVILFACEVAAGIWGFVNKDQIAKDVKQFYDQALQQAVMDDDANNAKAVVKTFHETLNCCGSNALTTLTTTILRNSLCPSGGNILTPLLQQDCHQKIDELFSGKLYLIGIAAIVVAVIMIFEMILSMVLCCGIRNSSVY
Experimental: as §1

[3] = test system: exosome from differentiated muscle cells C2C12(dC2C12); assay: Flow cytometry binding of FAM-labeled peptides to exosome; set-up: species or system murine
Experimental: The FAM-labeled peptides EXP, CP05, 39880, 39881 were respectively co-incubated with exosome from differentiated muscle cells C2C12(dC2C12), and the binding efficiency of different polypeptides with exosome was detected by flow cytometry.
Each sign in the figure represents the detection results of the following sequences: EXO represents exosomes derived from murine myotubes; CP05 represents the polypeptide which is recorded in the prior art Chinese patent No. CN201510520565.7; EXP represents the polypeptide of the present invention (SEQ ID NO.1). 39880 and 399881 respectively represent two other variants of CP05. (A) Flow cytometry to detected the binding efficiency of different peptides with exosomes. […] (B) Flow cytometry to detected the capacity to enter cells of different peptides mediated by exosome. The equivalent amount FAM-labeled polypeptides were incubated with exosome derived from dC2C12 and added into C2C12 cells, and the capacity of enter cells was detected 24 hours later. It's shown by the results that 65.6% of EXO-EXP entered cells whose capacity is highest. (C) Quantitative analysis of different peptides entering cells mediated by exosome. […] (D) the binding efficiency of different amount gradients of CP05 and EXP to the equivalent amount of exosomes was detected by Flow cytometry to. Different amounts of EXP and CP05(0.03 μg, […], 0.3 μg) were co-incubated with exosomes (10 μg), and their binding efficiency was compared by flow cytometry.
1.1 Flow cytometry is used to detect the binding capacity of EXP and other peptides to exosome. • (1) FAM-labeled CP05 and other peptides respectively with amount of […] were mixed with exosome from different source like dC2C12, CDC and serum respectively with amount of […], and DPBS is used to make up a deficiency to 200 μl in volume with. • (2) The mixture prepared as described in (1) was incubated at 4° C. for 2-4 hrs under rotation in vertical shaker. • (3) the binding efficiency was detected with flow cytometry.

[4] = test system: exosomes recovered by EXP; assay: Binding efficiency of CP05 and EXP with serum exosomes recovered by EXP; settings: serum exosomes recovered by EXP (FIG. 6E)
[5] = test system: C2C12 cells; assay: Binding stability: intracellular co-localization of peptides with exosomes (confocal microscopy, FRET); assay type: cell-based, murine
Experimental: The intracellular co-localization of CP05 and EXP with exosomes was examined with confocal microscopy at different timepoints. FAM-labeled CP05 and EXP were incubated with DiI-labeled exosomes and then added into C2C12 cells.
The meanings of the signs in the figure are as follows: DAPI means staining result for nuclei by DAPI, Peptide(488,520) refers to the excitation and emission wavelength of FAM-labeled CP05 and EXP; EXO(Dil)(540,620) refers to the excitation and emission wavelength for DiI-labeled exosomes; Merge is the superposition of above three staining results; FRET means fluorescence resonance energy transfer. Optical energy resonance transfer is an energy transfer phenomenon between two fluorescent molecules that are very close to each other. When the emission spectrum of the donor fluorescent molecule overlaps with the absorption spectrum of the acceptor fluorescent molecule, and the distance between two molecules is within the range of 10 nm, a […] energy transfer occurs. In the figure, the FAM-Peptide is the donor fluorescent molecule and DiI-EXO is the acceptor fluorescent molecule. […] EXOCP05 is the staining result of exosomes combined with CP05 sequence which is recorded in the prior art Chinese Patent No. CN201510520565.7, and EXOEXP refers to the staining result of the combination of EXP of the present invention and exosomes. […]

protein band fished from cell lysate, confirmed by Western blot as CD63 [1]: distinct protein bands
protein band fished from cell lysate, confirmed by Western blot as CD81 [2]: distinct protein bands
binding efficiency with recovered exosomes [4]: 95.9%
Sequence: CRHKMWTVKSRL (EXP)
binding efficiency with exosome under different amount gradients, compared with CP05 ([3]; 0.03 μg, 0.06 g, 0.3 μg peptide co-incubated with exosomes (10 μg), FIG. 1D): all higher than that of CP05
binding efficiency to exosomes ([3]; FAM-labeled peptide co-incubated with exosome from dC2C12, flow cytometry (FIG. 1A)): up to 95.5%
binding efficiency of EXP with exosomes compared to CP05 ([3]; under the same conditions): about 2 times
co-localization with EXO in cells at 48 hours [5]: still detectable

Reference: patent US11951171B2, “Polypeptide EXP and its drug delivery system as well as extracellular vesicle extraction” (TIANJIN MEDICAL UNIVERSITY, priority 2019, dated 2024)
